These results are taken from patent US20040161391A1, “Ascorbic acid compounds as bleaching agents” (L'OREAL, priority 2002, published 2004).

Data set [1] relates to melanocytes in co-culture. As to the kind of experiment: Activity on the dendricity of melanocytes (melanocyte/keratinocyte co-culture, NKlbeteb labelling). In kind it is cell-based. The conditions noted are these: 7 days treatment, 100 μg per ml; test concentration: T1 312 μM, T2 327 μM, A 230 μM, B 262 μM. The protocol:
The aim of this test is to show the effect of the compounds used according to the invention on the morphological modulation of melanocytes.
The melanocytes are treated immediately on inoculation with the compounds according to the invention for 7 days. The compounds are used at a dose of 100 μg per ml.
The melanocytes are labelled using the antibody NKlbeteb (green coloration), which recognizes melanosomes at any stage of maturation. The nucleus of all the cells, melanocytes and keratinocytes, is stained using propidium iodide (red coloration).
In the absence of the compounds according to the invention, the melanocytes in co-culture are highly dendritic. The pigment is visibly transferred to the neighbouring keratinocytes.

Another data set deals with melanogenesis. As to the kind of experiment: Activity on melanogenesis (ratio of thiouracil to leucine incorporation). The class given is cell-based. As to conditions: for IC50: read-out: IC50 (concentration for which a 50% inhibition of melanogenesis is observed); for Inhibitory activity on melanogenesis: relative to 100% of control, test concentration: T1 312 μM, T2 327 μM, A 230 μM, B 262 μM. The protocol: The melanogenesis-modulating effect of the compounds of formula (I) was measured according to the method described in patent application EP-0 993 826 filed by the Applicant, and also in the article by R. Schmidt, P. Krien and M. Regnier, Anal. Biochem., 235(2), 113-18, (1996).
(§1) The following were determined for each test compound:
the inhibitory activity on melanin synthesis, by estimating the ratio of the incorporation of thiouracil to the incorporation of leucine, relative to 100% of the control (the control corresponds to the test performed without test compound),
the IC50 value, which corresponds to the micromolar (μM) concentration for which a 50% inhibition of melanogenesis is observed.

Data set [2] is described as follows: Cytotoxicity by estimating the incorporation of leucine. The class given is cell-based. The protocol: as §1
the cytotoxicity, by estimating the incorporation of leucine, […]

The target of another data set is T1, tyrosinase (Homo sapiens, UniProt P14679).
T1 sequence (P14679 19-529): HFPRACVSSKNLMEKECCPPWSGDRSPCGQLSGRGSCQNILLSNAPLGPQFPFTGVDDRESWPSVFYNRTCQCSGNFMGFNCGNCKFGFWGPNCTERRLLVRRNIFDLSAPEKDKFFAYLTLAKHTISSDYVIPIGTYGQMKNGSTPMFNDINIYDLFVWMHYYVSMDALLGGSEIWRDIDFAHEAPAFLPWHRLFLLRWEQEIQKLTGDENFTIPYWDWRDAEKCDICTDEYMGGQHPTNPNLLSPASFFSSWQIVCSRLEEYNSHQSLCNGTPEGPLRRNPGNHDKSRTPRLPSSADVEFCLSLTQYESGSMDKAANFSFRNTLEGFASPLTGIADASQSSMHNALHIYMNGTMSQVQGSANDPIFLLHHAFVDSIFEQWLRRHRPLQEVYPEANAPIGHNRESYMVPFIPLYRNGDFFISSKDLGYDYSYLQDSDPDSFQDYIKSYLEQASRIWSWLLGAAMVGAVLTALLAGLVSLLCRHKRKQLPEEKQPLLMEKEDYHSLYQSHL
The conditions noted are these: J. Soc. Cosmet. Chem., 42, 1991; cited from earlier work.

A further data set relates to melanocytes. As to conditions: Pigment. Cell. Res., 13, 2000; cited from earlier work.

Entries after “also recorded” stand apart in the source; their conditions may differ.

As for `COc1cc(/C=C/C(=O)OC2=C(O)C(C3COC(C)(C)O3)OC2=O)ccc1OC(C)=O` (centres unmarked) [Compound A, 5-(2,2-dimethyl[1,3]dioxolan-4-yl)-4-hydroxy-2-oxo-2,5-dihydro-3-furanyl 3-[(4-acetoxy-3-methoxy)phenyl]acrylate], in data set [1], the Dendricity entry is on record as “Bipolar” and the Transfer of pigmentation entry is listed as “reduced; also recorded: Little”. Further, in the data set with melanogenesis, the IC50 was 200 µM. Moreover, the Cytotoxicity result in data set [2] is recorded as “No”.

For the molecule `COc1cc(/C=C/C(=O)OC2=C(O)C(C3COC(C)(C)O3)OC2=O)ccc1O` (centres unmarked) [Compound B, 5-(2,2-dimethyl[1,3]dioxolan-4-yl)-4-hydroxy-2-oxo-2,5-dihydro-3-furanyl 3-[(4-hydroxy-3-methoxy)phenyl]acrylate], in data set [1], the Dendricity entry was “Bipolar” and the Transfer of pigmentation result was “reduced; also recorded: Little”. The IC50 in the data set on melanogenesis came out at 500 µM. For the same molecule, the Cytotoxicity result in data set [2] is “No”.

For the molecule `O=C(/C=C/c1ccccc1)OC1=C(O)[C@@H]([C@@H](O)CO)OC1=O` [Compound T2, ascorbyl 2-cinnamate], in data set [1], the Dendricity entry is “Multipolar” and the Transfer of pigmentation entry is “Large”. In the data set on melanogenesis, the “IC50 (concentration for which a 50% inhibition of melanogenesis is observed)” value is “No effect” and the “Inhibitory activity on melanogenesis” value is reported as “No effect”. Further, the Cytotoxicity result in data set [2] is recorded as “No”.

`O=C1O[C@H]([C@@H](O)CO)C(O)=C1O` [ascorbic acid]: the Effect on tyrosinase result on tyrosinase is “inhibitory effect”.

Consider `O=C1O[C@H]([C@@H](O)CO)C([O-])=C1OP(=O)([O-])[O-].O=C1O[C@H]([C@@H](O)CO)C([O-])=C1OP(=O)([O-])[O-].[Mg+2].[Mg+2].[Mg+2]` [magnesium ascorbyl phosphate], for which, in the data set with melanocytes, the “Dendricity of the melanocytes” value is “reduce the dendricity” and the Melanin transfer result was “effect on melanin transfer”.

“methyl 2,3-bis-acetate of ascorbic acid [Compound T1]”: in data set [1], the Dendricity result is “Multipolar” and the Transfer of pigmentation result is on record as “Large”. In the data set on melanogenesis, the “IC50 (concentration for which a 50% inhibition of melanogenesis is observed)” value is “No effect” and the “Inhibitory activity on melanogenesis” value is recorded as “No effect”.
